A word on the EC50: it is the concentration that produces a half-maximal response.

A short description of data set [1]: Hepatocyte stability, rat. To be noted: read-out: Hep CLint,u rat (converted). It counts as in vitro ADME. How it is done: (§1) The hepatocyte stability assay was performed by incubation of test compound at 1 μM, 0.03% DMSO in modified Krebs–Henseleit buffer with suspension of pooled cryopreserved hepatocytes (BioIVT, Hicksville, NY, USA) from mouse, rat, dog, or human (BioIVT, Hicksville, NY, USA) at 0.5 million viable hepatocytes/mL. Before adding the hepatocytes (time zero) and after 10, 20, 45, 90, 120, and 180 min of incubation (n = 2) at 37 °C while gently shaking, the reaction was stopped and proteins were precipitated with an excess of acetonitrile containing an internal standard. The samples were mixed, centrifuged, and filtered, and the supernatant was analyzed by liquid chromatography–mass spectrometry/mass spectrometry (LC–MS/MS). The instrument responses (peak areas/IS peak areas) were referenced to the zero-time point samples (considered as 100%) in order to determine the percentage of compound remaining.

Data set [2] in a line: Liver microsomal stability, human. In kind it is in vitro ADME. As to conditions: liver microsomes; human microsomes; calculated from measured fumic; read-out: Mic CLint,u human (converted). Here is the method: (§2) The microsomal stability assay was performed by incubation of test compound at 1 μM, 0.2% DMSO in phosphate buffer with microsomes (0.5 mg/mL) from mouse, rat, dog, or human (Xeno-Tech, Kansas City, KS, USA), and cofactors with final concentrations of 0.6 U/mL glucose-6- phosphate dehydrogenase, 3.3 mM MgCl2, 3.3 mM glucose-6-phosphate, and 1.3 mM nicotinamide adenine dinucleotide phosphate (NADP)+. Before addition of the microsomes (time zero) and after 30 min of incubation at 37 °C with shaking, the reaction was stopped, and proteins were precipitated with an excess of acetonitrile containing an internal standard. The samples were mixed, centrifuged, and filtered, and the supernatant was analyzed by liquid chromatography–mass spectrometry/mass spectrometry (LC–MS/MS). The instrument responses (peak areas/IS peak areas) were referenced to the zero-time point samples (considered as 100%) to determine the percentage of compound remaining. In vitro unbound intrinsic clearance (CLint,u) was calculated from the half-life using the following equations: [drawing 1] [drawing 2] To take into account nonspecific binding, scaled CLint values were corrected with the fraction unbound in microsomes (fu, mic). [drawing 3]
(§3) Equilibrium dialysis is a technique used to measure microsomal binding. Briefly, the assay was performed in a 96-well Teflon dialysis unit (Dialysis Device), where each well consists of two chambers separated by a dialysis membrane (membrane strips, MW cutoff 12–14 kDa, HTDialysis). Inactivated liver microsomes (pooled human liver microsomes, Xenotech, protein concentration of 0.5 mg/mL) spiked with a compound (1 μM final concentration, 0.5% DMSO) were added to one chamber and buffer solution (50 mM PBS Buffer) was added to the other side of the well. Each compound was analyzed in duplicate for 4 h at 37 °C. At the end of incubation, both chambers were sampled and analyzed by LC-MS/MS. The unbound microsomal fraction (fu, mic) was calculated as the concentration in buffer divided by the total concentration in the microsomal side. Positive controls included in this assay are terfenadine and verapamil.

A short description of data set [3]: Liver microsomal stability, rat. In kind it is in vitro ADME. To be noted: liver microsomes; rat microsomes; calculated from measured fumic; read-out: Mic CLint,u rat (converted). Here is the method: as §2, §3
Data set [4] deals with T1, ΔF508 CFTR (Homo sapiens, UniProt P13569, DEL508-508).
T1 construct: host or cells: CFBE41o- TetON cells, expression induced with doxycycline
Put plainly: CSE-HRP: cell surface expression horseradish peroxidase assay in CFBE41o- cells. In kind it is cell-based. As to conditions: no additional corrector; for Emax: CFBE41o-, relative to lumacaftor or 5 (3 μM) positive control, read-out: CSE-HRP % max activation; for EC50: 24 h incubation, 33 °C, geometric mean, read-out: CSE-HRP EC50. Here is the method: A CFBE41o– cell line stably expressing ΔF508 CFTR harboring an HRP-tag in the fourth extracellular loop was obtained from Professor Gergely Lukacs (Department of Physiology, McGill University, Montreal, QC, Canada).[25] Cells were grown in Eagle’s minimal essential medium (Life Technologies) supplemented with 10% FBS, 1% L-glutamine (Life Technologies), 10 mM HEPES (Life Technologies), 200 μg/mL Geneticin (Life Technologies), and 3 μg/mL puromycin (Sigma) in culture flasks coated with 0.01% bovine serum albumin (BSA) (Sigma), 30 μg/mL Purecol (Nutacon), and 0.001% human fibronectin (Sigma).
CFBE41o– TetON cells expressing HRP tagged ΔF508-CFTR were seeded in white 384-well plates (Greiner) at a density of 2000 cells per well. Medium containing 500 ng/mL doxycycline was used to induce expression of ΔF508-CFTR-HRP. After 3 days, cells were treated with corrector or potentiator compounds and transferred to an incubator at 33 °C. On day 4, cells were washed five times with PBS containing Ca^2+ and Mg^2+ using a Bio-Tek plate washer and incubated with a chemiluminescent HRP substrate (SuperSignal West Pico Chemiluminescent Substrate, Thermo Scientific) for 15 min. Chemiluminescence was measured using an Envision plate reader (PerkinElmer). Dose response data was fitted using a 4 parameter hill function of the form Response = neg control + (pos control – neg control)/(1 + 10^(log EC50-concentration)/HillSlope) to determine EC50 values. Percentage efficacy was calculated using the following formula: (max response – neg control)/(C1 response – neg control).

Data set [5] can be described thus: Hepatocyte stability, human. It counts as in vitro ADME. As to conditions: human hepatocytes; read-out: Hep CLint,u human. How it is done:
as §1

Data set [6] is described as follows: Plasma protein binding, human. In kind it is in vitro ADME. As to conditions: human, plasma, pH 7.4, human plasma; read-out: PPB % human (converted). How it is done: (§4) Plasma protein binding was determined by equilibrium dialysis using the Pierce Red Device plate with inserts (ThermoScientific). Test compound at 5 μM (0.5% DMSO) spiked in freshly thawed human, rat, mouse, or dog plasma (Bioreclamation INC, Westbury, NY, USA) was dialyzed against phosphate-buffered saline (PBS, pH 7.4) at 37 °C under shaking for 4 h. Aliquots were taken from each side of the well, and matrix matched. Proteins were precipitated with an excess of acetonitrile, samples were mixed and centrifuged, and the supernatant was analyzed by liquid chromatography–mass spectrometry/mass spectrometry (LC–MS/MS). Addition of compound peak areas in the buffer chamber and the plasma chamber was considered to be 100% compound.

Data set [7] is described as follows: Plasma protein binding, rat. In kind it is in vitro ADME. To be noted: pH 7.4, read-out: PPB % rat (converted). Here is the method: as §4
Data set [8] addresses T1, ΔF508 CFTR. As to the kind of experiment: TECC (transepithelial clamp circuit) in primary CF-derived HBE cells. It counts as cell-based. To be noted: footnote b: after 24 h incubation a fixed 1 μM C2 corrector concentration was added during the recording. Here is the method:
Bronchial epithelial cells isolated from the lungs of patients with CF homozygous for the ΔF508 CFTR mutation were obtained from McGill University (Montreal, QC, Canada) or the University of North Carolina (Chapel Hill, NC, United States). Cells were isolated from lungs obtained from donors undergoing planned transplantation. These primary cells were cultured directly on type IV collagen-coated polycarbonate Transwell supports with a diameter of 6.5 mm and pore size of 0.4 μm (Costar, #3397) for 18–25 days in an air–liquid interface, essentially as previously described for TECC.[23]
Twenty-four hours prior to the electrophysiological recording, corrector and/or potentiator compounds were added on both the apical and basolateral sides. TECC recordings were performed by using the TECC instrument developed and sold by EP Design (Bertem, Belgium). During the recording, the epithelial cells were bathed in a NaCl-Ringer solution (120 mM NaCl, 20 mM HEPES, 1.2 mM CaCl2, 1.2 mM MgCl2, 0.8 mM KH2PO4, 0.8 mM K2HPO4, 5 mM glucose, pH 7.4) on both the basolateral (640 μL) and the apical (160 μL) sides and kept at 37 °C. Corrector and potentiator compounds were readded at the same concentration used during the 24 h pretreatment. Apical amiloride was used to inhibit the endogenous ENaC currents (100 μM), while forskolin (10 μM) was applied on both the apical and basolateral sides to stimulate CFTR. Measurements were done during a 20 min time frame with recordings every 2 min. The transepithelial potential and transepithelial resistance were measured in an open circuit and transformed to Ieq using Ohm’s law. The maximal increase in Ieq (ΔIeq, the difference in current before and after forskolin or potentiator treatment) was used as a measure for the increased CFTR activity. EC50 values were generated by measuring the impact of different concentrations of compounds on ΔIeq in primary cells. For this purpose, each transwell was treated with a different compound concentration. CFTRInh-172 was added apically at 10 μM to assess the specificity of the response. Dose response data was fitted using a 3-parameter hill function of the form Response = Bottom + (Top – Bottom)/(1 + (EC50/concentration)) to determine EC50 values. Percentage efficacy was calculated using the following formula: (max response – neg control)/(C1 response – neg control).

The nature of the next data set: PK rat. In kind it is in vivo. As to conditions: iv. How it is done:
These studies were performed with naïve male Sprague–Dawley rats (Janvier France, 6–8 weeks old). Rats were dosed iv via a bolus in the tail vein with a dose level of 0.1 mg/kg or orally as a single esophageal gavage with a dose level of 5 mg/kg. For the iv route, the compound was formulated in PEG200/water (60/40; v/v). For the oral route, the compound was formulated in MC 0.5% (2/98) as a homogeneous suspension. Before the oral dosing, the animals were deprived of food for at least 12 h before compound administration until 3 h after administration. All animals had free access to the tap water. Blood samples were collected under light anesthesia and placed into tubes containing Li-heparin as an anticoagulant. Blood samples were collected up to 24 h after dosing (n = 3 rats per route). After centrifugation, the resulting plasma samples were assayed by LC-MS/MS with a nongood laboratory practice (non-GLP)-validated method. PK parameters were calculated by noncompartmental analysis using WinNonlin software (Certara, Princeton, NJ, USA).

Where [9] appears, read: pooled cryopreserved hepatocytes in suspension.

T1 sequence (P13569 with tags, fused parts or gaps DEL508-508): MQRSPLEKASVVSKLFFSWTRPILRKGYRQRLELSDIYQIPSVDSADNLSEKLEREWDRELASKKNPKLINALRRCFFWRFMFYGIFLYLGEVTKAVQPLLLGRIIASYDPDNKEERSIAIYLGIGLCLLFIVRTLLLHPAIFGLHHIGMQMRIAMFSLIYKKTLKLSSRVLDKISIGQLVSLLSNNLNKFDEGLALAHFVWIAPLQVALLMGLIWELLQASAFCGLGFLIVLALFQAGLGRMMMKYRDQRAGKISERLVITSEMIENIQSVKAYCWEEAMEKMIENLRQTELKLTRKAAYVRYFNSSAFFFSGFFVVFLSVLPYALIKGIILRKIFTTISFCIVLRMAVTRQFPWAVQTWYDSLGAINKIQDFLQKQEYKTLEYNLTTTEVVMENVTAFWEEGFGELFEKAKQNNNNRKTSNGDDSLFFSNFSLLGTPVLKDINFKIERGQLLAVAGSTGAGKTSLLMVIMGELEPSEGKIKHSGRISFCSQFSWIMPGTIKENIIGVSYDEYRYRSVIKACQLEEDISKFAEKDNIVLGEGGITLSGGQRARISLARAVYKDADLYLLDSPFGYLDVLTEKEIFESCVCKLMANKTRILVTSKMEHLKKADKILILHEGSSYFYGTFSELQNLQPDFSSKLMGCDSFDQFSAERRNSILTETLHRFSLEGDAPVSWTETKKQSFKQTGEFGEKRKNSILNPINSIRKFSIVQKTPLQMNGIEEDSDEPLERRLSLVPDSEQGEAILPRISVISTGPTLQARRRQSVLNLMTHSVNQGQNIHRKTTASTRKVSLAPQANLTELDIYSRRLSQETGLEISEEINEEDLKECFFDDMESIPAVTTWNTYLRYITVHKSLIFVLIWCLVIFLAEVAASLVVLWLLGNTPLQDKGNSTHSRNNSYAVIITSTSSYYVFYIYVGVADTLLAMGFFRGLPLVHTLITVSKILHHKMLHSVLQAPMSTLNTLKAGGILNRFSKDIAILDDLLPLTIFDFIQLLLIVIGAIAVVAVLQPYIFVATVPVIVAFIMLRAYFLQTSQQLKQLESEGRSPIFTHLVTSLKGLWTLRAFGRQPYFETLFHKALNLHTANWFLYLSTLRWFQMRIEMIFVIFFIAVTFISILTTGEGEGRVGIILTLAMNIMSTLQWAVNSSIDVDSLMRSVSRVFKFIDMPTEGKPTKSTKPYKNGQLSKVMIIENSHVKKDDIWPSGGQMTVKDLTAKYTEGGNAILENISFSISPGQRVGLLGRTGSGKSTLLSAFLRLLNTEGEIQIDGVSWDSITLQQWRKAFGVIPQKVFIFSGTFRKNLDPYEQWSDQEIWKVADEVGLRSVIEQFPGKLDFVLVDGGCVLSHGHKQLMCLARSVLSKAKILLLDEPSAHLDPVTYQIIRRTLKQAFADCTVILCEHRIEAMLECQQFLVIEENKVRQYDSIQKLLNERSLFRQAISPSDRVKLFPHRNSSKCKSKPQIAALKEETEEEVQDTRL

In the case of `COc1ccc(-c2cc(C(=O)O)nc3c2c(C)nn3-c2ccc(C)cc2)cc1` [Compound 6], the CLint scaled at 1 μM is 263 mL/min/kg in [1] (setting [9]), less than 59.8 mL/min/kg in data set [2] and 182 mL/min/kg in [3]. For the same compound, on ΔF508 CFTR [4], the Emax was 64%. Further, the EC50 on ΔF508 CFTR [4] amounted to 4130 nM.

Regarding `COc1ccc(-c2cc(C(=O)O)nc3c2c(C)nn3-c2ccccc2)cc1` [Compound 7], the CLint scaled at 1 μM in [1] (setting [9]) is 305 mL/min/kg; in data set [2] it was 173 mL/min/kg; in data set [3], 180 mL/min/kg. At ΔF508 CFTR [4], the Emax stood at 95%. Also, the EC50 on ΔF508 CFTR [4] stood at 2480 nM.

Take `Cc1nn(-c2ccccc2)c2nc(C(=O)O)cc(-c3ccc(N4CCOCC4)cc3)c12` [Compound 8]: the CLint scaled at 1 μM in [1] (rat hepatocytes) was 66.7 mL/min/kg; in data set [2], less than 28.3 mL/min/kg; in data set [3] it was less than 43.3 mL/min/kg; in data set [5], less than 45.7 mL/min/kg.

As for `CS(=O)(=O)NC(=O)c1cc(N2CCC(N3CCOCC3)CC2)c2c(C3CCC3)nn(-c3ccc(F)cc3)c2n1` [Compound 50], the CLint scaled at 1 μM in data set [1] (setting [9]) was less than 11.5 mL/min/kg. For the same compound, the fraction unbound at 4 h, 5 μM in [6] is 0.013; in [7], 0.009. Further, on ΔF508 CFTR [8] (HBE, read-out: TECC HBE with GLPG2222 % max activation), the Emax came to 410%. The EC50 at ΔF508 CFTR [8] (read-out: TECC HBE with GLPG2222 EC50) was 46 nM. Moreover, the CLu rat in the data set “PK rat” (unbound clearance) was determined as 205 mL/min/kg. The clearance in “PK rat” (male, Sprague-Dawley, plasma, 0.1 mg/kg, read-out: CLp rat (converted)) was 1.83 mL/min/kg. The half-life in “PK rat” (male, Sprague-Dawley, plasma, 0.1 mg/kg, read-out: t1/2 iv rat (converted)) is 3.31 h. Besides, in the data set “PK rat” (male, Sprague-Dawley, plasma, 0.1 mg/kg, read-out: Vss rat), the Vd turned out to be 0.47 L/kg.

Values taken from publication PMC11017246, “Discovery of GLPG2737, a Potent Type 2 Corrector of CFTR for the Treatment of Cystic Fibrosis in Combination with a Potentiator and a Type 1 Co-corrector” (Journal of Medicinal Chemistry, 2024).
